This note sets out measurements from patent US10729133B2, “Cornfield herbicidal composition and application thereof” (priority 2016, dated 2020).

Holding throughout (test): Pot-culture stem and leaf treatment, fresh weight inhibition (Gowing method)
Type in all cases: in vivo

Assay [1] concerns Echinochloa crusgalli. The text has this:
(§1) Echinochloa crusgalli, Setaria viridis, Chenopodium album, Amaranthus retrollexus were collected from corn fields in Qingdao of Shandong Province. Sonchus brachyotus were collected from corn fields in Shenyang of Liaoning Province. Rhizoma Cyperi, Convolvulus arvensis were collected from corn fields in Shangqiu of Henan Province. Cirsium setosum were collected from corn fields in Xiantao of Hubei Province.
(§2) The above weeds were cultivated by a pot culture method. […] Full and uniform weed seeds were selected, soaked in warm water at 25° C. for 6 hours, and germinated in a 28° C. biochemical incubator (darkness). The weed seeds that had just germinated were evenly placed on the surface of the soil and then covered with 0.7 cm soil, and cultured in a controllable sunlight greenhouse after being treated with agents. A certain amount of water was added to the enamel pan regularly to keep the soil moist.
(§3) The culture was carried out in a controllable sunlight greenhouse at 18 to 30° C., in natural light, and relative humidity of 57% to 72%.
(§4) The technical materials were all dissolved in acetone, and diluted with an aqueous solution containing 0.1% emulsifier T-80. The dilution is performed as required.
(§5) 3 pots with 20 weed seeds per pot were treated in one treatment with […] per treatment, that is, a total of 60 weeds were treated in one treatment.
(§6) The agents were used for only once in the experiment. In the stage of weeds with 2 leaves and 1 core, the weeds were thinned out to maintain 15 weeds per pot and 45 weeds for each treatment, then continued to be cultured to 5-leaves and 1-core stage of Echinochloa crusgalli and Setaria viridis, and treated.
(§7) The well-cultured weeds were evenly placed on a platform with an area of 0.5 m^2, and a solution of agents was sprayed on the stems and leaves thereof by the 3WP-2000-type walking spray tower at a dosage of 30 kg/ha and at a spray pressure of 0.3 MPa. After all the solution was sprayed, the valve was closed. After 30 seconds, the door of the spray tower was opened, and the nutritional bowl was taken out. Then the valve was opened, and the spray tube was cleaned by spraying 50 ml of water.
(§8) A pot-culture method was employed. For the cultivation of weeds, please refer to the Section 1.1, and “Pesticide guidelines for laboratory bioactivity tests—herbicides”. As to a method for applying agents, please refer to the section 2.3.2, that is, a method for treating stems and leaves was employed.
(§9) A method for investigating absolute number was employed, wherein whole seedlings of survival weeds were cut off with a blade along the soil surface, and the fresh weight of the weeds was weighed with an analytical balance. For dead weeds, the fresh weight thereof was zero.
(§10) The investigation was performed after 20 days of the treatment for only once.
(§11) An optimum ratio of the two active ingredients was determined by the actual control effect, characteristics of herbicides, and balance of a corresponding formula.
(§12) Wherein, in the formula, X represented the fresh weight inhibition rate of A in a dosage of P, and Y represented the fresh weight inhibition rate of the active ingredient B in a dosage of Q.

The test system of assay [2] is Setaria viridis.
Text: as §1, §2, §3, §4, §5, §6, §7, §8, §9, §10, §11, §12

Assay [3] concerns Rhizoma Cyperi.
Text: as §1, §2, §3, §4, §5, §6, §7, §8, §9, §10, §11, §12

The test system of assay [4] is Chenopodium album. The following applies: for actual fresh weight inhibition rate (%): Chenopodium album.
Text: as §1
(§13) The above weeds were cultivated by a pot culture method. […] Full and uniform weed seeds were selected, soaked in warm water at 25° C. for 6 hours, and germinated in a 28° C. biochemical incubator (darkness). […] A certain amount of water was added to the enamel pan regularly to keep the soil moist.
as §4, §5, §6, §7, §8, §9, §10, §12

For assay [5], the system named is Cirsium setosum.
Text: as §1, §2, §3, §4, §5, §6, §7, §8, §9, §10, §11, §12

Assay [6] has as its system Amaranthus retrollexus. The following applies: Amaranthus retroflexus.
Text: as §1, §13, §4, §5, §6, §7, §8, §9, §10, §12

Assay [7] has as its system Convolvulus arvensis.
Text: as §1, §13, §4, §5, §6, §7, §8, §9, §10, §12

Assay [8] deals with Sonchus brachyotus.
Text: as §1, §13, §4, §5, §6, §7, §8, §9, §10, §12

The mark [9] stands for this setting: dosage of active ingredient 45 g/hm^2.
Setting [10] is: dosage of active ingredient 90 g/hm^2.
Where [11] appears, read: dosage of active ingredient 180 g/hm^2.
The mark [12] stands for this setting: dosage of active ingredient 112.5 g/hm^2.
Where [13] appears, read: dosage of active ingredient 225 g/hm^2.
The mark [14] stands for this setting: dosage of active ingredient 450 g/hm^2.

SMILES strings stand for the structures. Where “and” joins values, the source holds several entries; their conditions need not be identical. Equal entries are not always repeated.

Take `CCCCOCN(C(=O)CCl)c1c(CC)cccc1CC` [butachlor]: the “actual fresh weight inhibition rate” value in assay [1] (dosage 375 g/hm^2) was determined as 2.4%; in assay [1] (dosage 750 g/hm^2), 3.9%; in assay [1] (dosage 1500 g/hm^2), 5.4%; in assay [2] (dosage 375 g/hm^2), 2.7%; in assay [2] (dosage 750 g/hm^2), 3.8%; in assay [2] (dosage 1500 g/hm^2), 5.9%.

As to `CC(C)N1C(=O)c2ccccc2NS1(=O)=O` [bentazone], the “actual fresh weight inhibition rate” value in assay [3] (dosage 150 g/hm^2) came to 65.3%; in assay [3] (dosage 300 g/hm^2), 83.5%; in assay [3] (dosage 600 g/hm^2) it was 92.1%; in assay [4] (dosage 150 g/hm^2), 56.5%; in assay [4] (dosage 300 g/hm^2) it was 75.9%; in assay [4] (dosage 600 g/hm^2), 94.3%.

Consider `O=C(Nc1ccc(F)cc1F)c1cccnc1Oc1cccc(C(F)(F)F)c1` [diflufenican], for which the “actual fresh weight inhibition rate” value in assay [1] (dosage 75 g/hm^2) is listed as 7.2%; in assay [1] (dosage 150 g/hm^2), 9.4%; in assay [1] (dosage 300 g/hm^2) it was 10.3%; in assay [2] (dosage 75 g/hm^2) it was 3.9%; in assay [2] (dosage 150 g/hm^2) it was 8.3%; in assay [2] (dosage 300 g/hm^2), 10.5%.

Take `CCc1cccc(C)c1N(C(=O)CCl)[C@@H](C)COC` [s-metolachlor]: the “actual fresh weight inhibition rate” value in assay [1] (dosage 375 g/hm^2) was found to be 2.5%; in assay [1] (dosage 750 g/hm^2), 3.4%; in assay [1] (dosage 1500 g/hm^2) it was 5.6%; in assay [2] (dosage 375 g/hm^2), 2.9%; in assay [2] (dosage 750 g/hm^2), 3.9%; in assay [2] (dosage 1500 g/hm^2), 6.2%.

As for `COc1cc(OC)nc(NC(=O)NS(=O)(=O)c2ncccc2C(=O)N(C)C)n1` [nicosulfuron], the “actual fresh weight inhibition rate” value in assay [1] (dosage 15 g/hm^2) is given as 33.1%; in assay [1] (dosage 30 g/hm^2), 74.5%; in assay [1] (dosage 60 g/hm^2), 100%; in assay [2] (dosage 15 g/hm^2), 45.7%; in assay [2] (dosage 30 g/hm^2), 79.6%; in assay [2] (dosage 60 g/hm^2), 100%.

In the case of `CCn1ncc(C(=O)c2ccc(S(C)(=O)=O)c(COCC(F)(F)F)c2Cl)c1OC(=O)c1cn(C)nc1C` [A1], the “actual fresh weight inhibition rate” value in assay [5] (dosage 45 g/hm^2) was 19.3%; in assay [5] (dosage 90 g/hm^2) it was 20.4%; in assay [5] (dosage 180 g/hm^2), 38.5%; in assay [1] (dosage 45 g/hm^2), 54.2% and 42.4%; in assay [1] (dosage 90 g/hm^2), 82.1% and 83.5%; in assay [1] (dosage 180 g/hm^2), 100%. The “actual fresh weight inhibition rate” value in assay [3] (dosage 45 g/hm^2) is 22.8%; in assay [3] (dosage 90 g/hm^2) it was 31.1%; in assay [3] (dosage 180 g/hm^2), 44.2%; in assay [2] (dosage 45 g/hm^2), 45.7% and 42.1% and 39.9%; in assay [2] (dosage 90 g/hm^2), 81.6% and 80.3% and 81.2%; in assay [2] (dosage 180 g/hm^2), 100%. Further, the “actual fresh weight inhibition rate” value in assay [4] (dosage 45 g/hm^2) is 19.1%; in assay [4] (dosage 90 g/hm^2), 30.2%; in assay [4] (dosage 180 g/hm^2) it was 48.7%; in assay [7] (dosage 45 g/hm^2), 23.2%; in assay [7] (dosage 90 g/hm^2) it was 38.9%; in assay [7] (dosage 180 g/hm^2), 48.2%. For the same molecule, the entries for the “actual fresh weight inhibition rate” value in assay [8] (dosage 45 g/hm^2), in assay [8] (dosage 90 g/hm^2) and in assay [8] (dosage 180 g/hm^2) were 32.1%, 53.2% and 78.8%, respectively. The “actual fresh weight inhibition rate (%)” value worked out at 45.7% in assay [6] (setting [9]); 81.6% in assay [6] (setting [10]); 100% in assay [6] (setting [11]); 19.1% in assay [4] (setting [9]); 30.2% in assay [4] (setting [10]); 48.7% in assay [4] (setting [11]).

With `COc1c(Cl)ccc(Cl)c1C(=O)O` [dicamba], the “actual fresh weight inhibition rate” value is 66.2% in assay [4] (dosage 75 g/hm^2); 85.3% in assay [4] (dosage 150 g/hm^2); 100% in assay [4] (dosage 300 g/hm^2); 64.4% in assay [7] (dosage 75 g/hm^2); 78.9% in assay [7] (dosage 150 g/hm^2); 92.8% in assay [7] (dosage 300 g/hm^2).

Take `CCCCCCCC(=O)Oc1c(Br)cc(C#N)cc1Br` [bromoxynil octanoate]: the “actual fresh weight inhibition rate” value in assay [7] (dosage 112.5 g/hm^2) came to 58.9%; in assay [7] (dosage 225 g/hm^2), 79.2%; in assay [7] (dosage 450 g/hm^2), 98.1%; in assay [8] (dosage 112.5 g/hm^2), 56.2%; in assay [8] (dosage 225 g/hm^2) it was 78.3%; in assay [8] (dosage 450 g/hm^2), 99.2%.

On to `CSc1nnc(C(C)(C)C)c(=O)n1N` [metribuzin], for which the “actual fresh weight inhibition rate” value in assay [1] (dosage 112.5 g/hm^2) stood at 22.4%; in assay [1] (dosage 225 g/hm^2), 32.1%; in assay [1] (dosage 450 g/hm^2), 42.5%; in assay [2] (dosage 112.5 g/hm^2), 21.5%; in assay [2] (dosage 225 g/hm^2) it was 33.6%; in assay [2] (dosage 450 g/hm^2), 43.5%.

Regarding `Nc1c(Cl)c(F)nc(OCC(=O)O)c1Cl` [fluroxypyr], the “actual fresh weight inhibition rate” value in assay [5] (dosage 60 g/hm^2) was 56.2%; in assay [5] (dosage 120 g/hm^2), 79.2%; in assay [5] (dosage 240 g/hm^2) it was 95.4%; in assay [7] (dosage 60 g/hm^2) it was 63.2%; in assay [7] (dosage 120 g/hm^2), 78.2%; in assay [7] (dosage 240 g/hm^2), 92.2%.

In the case of `CC(C)c1nn(C(=O)NC(C)(C)C)c(=O)n1N` [amicarbazone], the “actual fresh weight inhibition rate (%)” value in assay [6] (setting [12]) is 21.6%; in assay [6] (setting [13]), 31.9%; in assay [6] (setting [14]), 41.8%; in assay [4] (setting [12]) it was 36.5%; in assay [4] (setting [13]), 45.9%; in assay [4] (setting [14]), 64.3%.

On to `COC(=O)c1c(Cl)nn(C)c1S(=O)(=O)NC(=O)Nc1nc(OC)cc(OC)n1` [halosulfuron-methyl], for which the “actual fresh weight inhibition rate” value was determined as 67.2% in assay [3] (dosage 15 g/hm^2), 89.3% in assay [3] (dosage 30 g/hm^2) and 100% in assay [3] (dosage 60 g/hm^2).

As for `CCNc1nc(Cl)nc(NC(C)C)n1` [atrazine], the “actual fresh weight inhibition rate” value in assay [1] (dosage 375 g/hm^2) was determined as 20.3%; in assay [1] (dosage 750 g/hm^2) it was 34.2%; in assay [1] (dosage 1500 g/hm^2) it was 45.1%; in assay [2] (dosage 375 g/hm^2), 21.3%; in assay [2] (dosage 750 g/hm^2), 31.4%; in assay [2] (dosage 1500 g/hm^2), 41.4%.

Take `CCNc1nc(Cl)nc(NC(C)(C)C)n1` [terbuthylazine]: the “actual fresh weight inhibition rate” value in assay [1] (dosage 375 g/hm^2) is recorded as 31.4%; in assay [1] (dosage 750 g/hm^2) it was 42.1%; in assay [1] (dosage 1500 g/hm^2), 51.7%; in assay [2] (dosage 375 g/hm^2), 25.2%; in assay [2] (dosage 750 g/hm^2), 30.6%; in assay [2] (dosage 1500 g/hm^2) it was 42.3%.
